According to patent publication US4611056A, “Benzo[A]phenothiazines and hydro-derivatives” (Merck Frosst Canada, Inc., priority 1985, dated 1986):
In brackets after ≈: the same amount, converted by molar mass. Structures can show the parent of a compound that is named as a salt.

Columns and labels:
asthmatic rat = assay: certain biological tests, amorphous versus crystalline material; assay type: in vivo
Text: Representative results comparing the two forms of the compound are shown in the accompanying Table IV (where doses are in mg/kg, p.o.).

[1] = test system: duration of dyspnoea in asthmatic rats (egg albumin challenge); assay: Asthmatic Rat Assay; assay type: in vivo; conditions: for ED50 (Asthmatic Rat Assay): p.o.
[2] = NMR study of equilibration of conformational isomers in solution; assay type: physicochemical; conditions: upon dissolution at room temperature (DMF-d7)
Description: In particular, the methyl group of the acetyl unit appears as four sharp singlets, of approximately equal intensity, at 1.89, 1.91, 1.99 and 2.28 parts per million (ppm).
In another experiment, a sample of the crystalline compound was dissolved in DMF-d7, pre-cooled to -50° C., and the NMR spectrum taken quickly at -50° C. […] As the sample was warmed, these two signals coalesced to a singlet at about 30° C. (1.91 ppm); at about 80° C., a second singlet appeared (2.04 ppm), and at 170° C., these two singlets began to coalesce.
In another NMR study of the compound, five samples were dissolved in DMF-d7 at 25° C., and then stored at -78° C., after being held for 0, 5, 15, 30 and 60 minutes at 25° C.
As a result of the x-ray and NMR studies, it is concluded that there is a single conformational isomer of compound XVIII present in the crystalline form, and that this isomer equilibrated, upon dissolution at room temperature, over a period of approximately one hour, to a mixture of at least four observable conformational isomers which may possibly be represented as follows: [drawing 50]

[3] = test system: LTB4 formation in rat peritoneal PMN leukocytes; assay: Rat Peritoneal Polymorphonuclear (PMN) Leukocyte Assay (inhibition of LTB4 formation); assay type: cell-based; conditions: for IC50: Leukocyte, rat peritoneal PMN, 10 μM A-23187, 2 min preincubation at 37° C.
Description: Rats under ether anesthesia are injected (i.p.) with 8 ml of a suspension of sodium cascinate (6 grams in ca. 50 ml water). […] The rats are sacrificed (CO2) and the cells from the peritoneal cavity are recovered by lavage with 20 ml of buffer (Eagles MEM containing 30 mM HEPES adjusted to pH 7.4 with NaOH). The cells are pelleted (350×g, 5 min.), resuspended in buffer with vigorous shaking, filtered through lens paper, recentrifuged and finally suspended in buffer at a concentration of 10 cells/ml. A 500 μl aliquot of PMN suspension and test compound are preincubated for 2 minutes at 37° C., followed by the addition of 10 μM A-23187. The suspension is stirred for an additional 4 minutes then bioassayed for LTB4 content by adding an aliquot to a second 500 μl portion of the PMN at 37° C. The LTB4 produced in the first incubation causes aggregation of the second PMN, which is measured as a change in light transmission. […] The percentage inhibition of LTB4 formation is calculated from the ration of transmission change in the sample to the transmission change in the compound-free control.

[4] = test system: Platelet activating factor (PAF)-induced hyperalgesia in the rat paw; assay: PAF-Induced Hyperalgesia Assay; assay type: in vivo, rat (female Sprague-Dawley)
Description: Female Sprague-Dawley rats, 35-40 g were fasted overnight. Platelet activating factor, PAF, (L-lecithin B-acetyl O-alkyl) 1 μg/0.1 ml was given by subplantar injection in the rat paw. The compounds to be evaluated were homogenized in Aqueous Vehicle (0.9% benzyl alcohol, 0.5% Tween 80 and 0.4% methylcellulose) and administered orally in a volume of 0.1 ml, 30 minutes prior to PAF.
Animals were tested 1, 2, 3 and 4 hours after PAF administration. The vocalization threshold, defined as the pressure (mmHg) needed to evoke a squeak response, was recorded for both the injected and contralateral paw. No animal was subjected to pressure greater than 60 mmHg. Hyperalgesia is defined as a decrease in vocalization threshold as compared to a normal paw. Percent inhibition of hyperalgesia was calculated as the proportion of animals with vocalization thresholds greater than 200% of controls.

[5] = 0.5 mg/kg p.o., vehicle 0.4% Tween 80/0.5% Methocel
[6] = 1.5 mg/kg p.o., vehicle 0.4% Tween 80/0.5% Methocel
[7] = 2 mg/kg p.o., vehicle 0.4% Tween 80/0.5% Methocel
[8] = vehicle 0.4% Tween 80/0.5% Methocel
[9] = Rattus norvegicus, po, 5 mg/kg p.o., Table III, read-out: Asth. Rat % Inhibition
[10] = Rattus norvegicus, po, 1.5 mg/kg p.o., Table III, read-out: Asth. Rat % Inhibition

CC(=O)OC(C)OC(=O)N1c2ccccc2Sc2cc(O)c3ccccc3c21 (centres unmarked) [Compound XVIII, Amorphous (4 Conformers), 5-hydroxy-12-(1-acetoxyethoxycarbonyl)-12H-benzo[a]phenothiazine]
biological activity over the crystalline material (asthmatic rat): advantageous biological activity over the crystalline material | % Inhibition (Asthmatic Rat Assay) [1, 5]: 48% | % Inhibition (Asthmatic Rat Assay) ([1]; 0.5 mg/kg p.o., vehicle 1% Methocel): 36% | % Inhibition (Asthmatic Rat Assay) [1, 6]: 52% | % Inhibition (Asthmatic Rat Assay) ([1]; 1.5 mg/kg p.o., vehicle 1% Methocel): 59% | % Inhibition (Asthmatic Rat Assay) [1, 7]: 57% | ED50 (Asthmatic Rat Assay) [1, 8]: 1.0 mg/kg | ED50 (Asthmatic Rat Assay) ([1]; vehicle 1% Methocel): 1.0 mg/kg

CC(=O)OC(C)OC(=O)N1c2ccccc2Sc2cc(O)c3ccccc3c21 (centres unmarked) [Compound XVIII, Crystalline (1 Conformer)] [5-hydroxy-12-(1-acetoxyethoxycarbonyl)-12H-benzo[a]phenothiazine]
period of equilibration of the single conformational isomer to a mixture of at least four conformational isomers [2]: approximately one hour | % Inhibition (Asthmatic Rat Assay) [1, 5]: 19% | % Inhibition (Asthmatic Rat Assay) [1, 6]: 49% | % Inhibition (Asthmatic Rat Assay) [1, 7]: 61% | % Inhibition (Asthmatic Rat Assay) ([1]; 2 mg/kg p.o., vehicle 1% Methocel): 28% | % Inhibition (Asthmatic Rat Assay) ([1]; 5 mg/kg p.o., vehicle 0.4% Tween 80/0.5% Methocel): 81% | ED50 (Asthmatic Rat Assay) [1, 8]: 1.5 mg/kg

CC(=O)Oc1cc2c(c3ccccc13)N(C(C)=O)c1ccccc1S2 [aromatic, Ac, Ac, S, 5-Acetoxy-12-acetyl-12H-benzo[a]phenothiazine]
inhibition in vivo at 5 mg/kg [1, 9]: 47%

CC(=O)N1c2ccccc2Sc2cc(O)c3ccccc3c21 [aromatic, Ac, H, S, 12-acetyl-5-hydroxy-12H-benzo[a]phenothiazine]
IC50 [3]: 1000 to 5000 µg/mL (≈ 3250 to 16300 µM)

COc1cc2c(c3ccccc13)N(C(C)=O)c1ccccc1S2 [aromatic, Ac, Me, S, 12-Acetyl-5-methoxy-12H-benzo[a]phenothiazine]
IC50 [3]: 5000 µg/mL (≈ 15600 µM)

CC(=O)Oc1cc2c(c3ccccc13)Nc1ccccc1O2 [aromatic, H, Ac, O, 5-Acetoxy-12H-benzo[a]phenoxazine]
inhibition in vivo at 5 mg/kg [1, 9]: 44%

CC(=O)Oc1cc2c(c3ccccc13)Nc1ccccc1S2 [aromatic, H, Ac, S, 5-acetoxy-12H-benzo[a]phenothiazine]
IC50 [3]: 25 to 50 µg/mL (≈ 81.3 to 163 µM) | ED50 ([4]; Rattus norvegicus, Platelet, po): 0.145 mg/kg | ED50 ([1]; Rattus norvegicus, po, Table III, read-out: Asth. Rat ED50): 4 mg/kg

CC(=O)Oc1cc2c(c3ccccc13)Nc1ccccc1S2(=O)=O [aromatic, H, Ac, SO2, 5-Acetoxy-12H-benzo[a]phenothiazine-7,7-dioxide]
inhibition in vivo at 5 mg/kg [1, 9]: 42%

CC(C)(C)C(=O)Oc1cc2c(c3ccccc13)Nc1ccccc1S2 [aromatic, H, COC(CH3)3, S, 5-Trimethylacetoxy-12H-benzo[a]phenothiazine]
inhibition in vivo at 5 mg/kg [1, 9]: 54%

NCC(=O)Oc1cc2c(c3ccccc13)Nc1ccccc1S2 [aromatic, H, COCH2 NH2 .HCl, S, 5-aminoacetoxy-12H-benzo[a]phenothiazine-hydrochloride salt]
inhibition in vivo at 1.5 mg/kg [1, 10]: 21% | inhibition in vivo at 3 mg/kg ([1]; Rattus norvegicus, po, 3 mg/kg p.o., Table III, read-out: Asth. Rat % Inhibition): 44%

O=C(Oc1cc2c(c3ccccc13)Nc1ccccc1S2)c1ccccc1 [aromatic, H, COPh, S, 5-Benzoyloxy-12H-benzo[a]phenothiazine]
inhibition in vivo at 5 mg/kg [1, 9]: 18%

Oc1cc2c(c3ccccc13)Nc1ccccc1S2 [aromatic, H, H, S, 5-hydroxy-12H-benzo[a]phenothiazine]
IC50 [3]: 20 to 100 µg/mL (≈ 75.4 to 377 µM) | inhibition in vivo at 1.5 mg/kg [1, 10]: 54%

O=S1(=O)c2ccccc2Nc2c1cc(O)c1ccccc21 [aromatic, H, H, SO2, 5-Hydroxy-12H-benzo[a]phenothiazine-7,7-dioxide]
inhibition in vivo at 5 mg/kg [1, 9]: 67%

CCOP(=O)(OCC)Oc1cc2c(c3ccccc13)Nc1ccccc1S2 [aromatic, H, PO(OEt)2, S, Diethyl 12H-benzo[a]phenothiazin-5-yl phosphate]
PMN IC50 [3]: 200 to 1000 µg/mL

CC(=O)Oc1cc2c(c3ccccc13)N(C)c1ccccc1S2 [aromatic, Me, Ac, S, 5-acetoxy-12-methyl-12H-benzo[a]phenothiazine]
IC50 [3]: 50 µg/mL (≈ 156 µM) | PAF Induced Hyperalgesia % Inhibition ([4]; 1 mg/kg p.o.): 30-60%

COc1cc2c(c3ccccc13)N(C)c1ccccc1S2 [aromatic, Me, Me, S, 5-methoxy-12-methyl-12H-benzo[a]phenothiazine]
IC50 [3]: 5000 µg/mL (≈ 17000 µM) | PAF Induced Hyperalgesia % Inhibition ([4]; 1 mg/kg p.o.): 40% | PAF Induced Hyperalgesia % Inhibition ([4]; 3 mg/kg p.o.): 80%

CC(=O)OC(C)OC(=O)N1c2ccccc2Sc2cc(O)c3ccccc3c21 (centres unmarked) [aromatic, drawing 52, H, S, 5-hydroxy-12-(1-acetoxyethoxycarbonyl)-12H-benzo[a]phenothiazine]
PAF Induced Hyperalgesia % Inhibition ([4]; 3 mg/kg p.o.): 60% | inhibition in vivo at 1.5 mg/kg [1, 10]: 49%
